# System: 282377-053-R-J1-PDC complex spheroid viability
# Experiment: Anticancer human tumor 282377-053-R-J1-PDC patient-derived colon adenocarcinoma cell line growth inhibition [RAS]
# Conditions: for IC50: curve of first compound; for viability, T/C: stronger effect = lower value
# Method in brief: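 Agents were tested in combination matrices in half-log decrements from a top concentration at or near clinical Cmax (10 microM if undetermined). Targets were multi-cell spheroids of tumour lines plus HUVEC and MSC stromal cells.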
# [1] = second compound 0.000949 µM, first compound 0.0316 µM
# [2] = second compound 0.000949 µM, first compound 0.1 µM
# [3] = second compound 0.000949 µM, first compound 0.316 µM
# [4] = second compound 0.000949 µM, first compound 1 µM
# [5] = second compound 0.000949 µM, first compound 3.16 µM
# [6] = second compound 0.000949 µM, first compound 10 µM
# [7] = second compound 0.003 µM, first compound 0.0316 µM
# [8] = second compound 0.003 µM, first compound 0.1 µM
# [9] = second compound 0.003 µM, first compound 0.316 µM
# [10] = second compound 0.003 µM, first compound 1 µM
# [11] = second compound 0.003 µM, first compound 3.16 µM
# [12] = second compound 0.003 µM, first compound 10 µM
# [13] = second compound 0.00949 µM, first compound 0.0316 µM
# [14] = second compound 0.00949 µM, first compound 0.1 µM
# [15] = second compound 0.00949 µM, first compound 0.316 µM
# [16] = second compound 0.00949 µM, first compound 1 µM
# [17] = second compound 0.00949 µM, first compound 3.16 µM
# [18] = second compound 0.00949 µM, first compound 10 µM
# [19] = second compound 0.03 µM, first compound 0.0316 µM
# [20] = second compound 0.03 µM, first compound 0.1 µM
# [21] = second compound 0.03 µM, first compound 0.316 µM
# [22] = second compound 0.03 µM, first compound 1 µM
# [23] = second compound 0.03 µM, first compound 3.16 µM
# [24] = second compound 0.03 µM, first compound 10 µM
# [25] = second compound 0.0949 µM, first compound 0.0316 µM
# [26] = second compound 0.0949 µM, first compound 0.1 µM
# [27] = second compound 0.0949 µM, first compound 0.316 µM
# [28] = second compound 0.0949 µM, first compound 1 µM
# [29] = second compound 0.0949 µM, first compound 3.16 µM
# [30] = second compound 0.0949 µM, first compound 10 µM
# [31] = second compound 0.3 µM, first compound 0.0316 µM
# [32] = second compound 0.3 µM, first compound 0.1 µM
# [33] = second compound 0.3 µM, first compound 0.316 µM
# [34] = second compound 0.3 µM, first compound 1 µM
# [35] = second compound 0.3 µM, first compound 3.16 µM
# [36] = second compound 0.3 µM, first compound 10 µM
# 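Also: spheroids exposed to agents for seven days before readout.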
# 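For viability, T/C in this document: luminescence viability as percent of DMSO vehicle control wells.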
compound,measurement,setting,value
Cc1nc(N2CCC3(CC2)COC(C)C3N)c(CO)nc1Sc1ccnc(N)c1Cl (centres undefined) + CCn1c(-c2cccnc2C(C)OC)c2c3cc(ccc31)N1CCOC(CC(NC(=O)C(C(C)C)N(C)C(=O)C3(F)CCN(C(=O)C#CC(C)(C)N(C)C)CC3)C(=O)N3CCCC(N3)C(=O)OCC(C)(C)C2)C1,IC50,second compound 0.000949 µM,> 10 µM
same,IC50,second compound 0.003 µM,> 10 µM
same,IC50,second compound 0.00949 µM,> 10 µM
same,IC50,second compound 0.03 µM,> 10 µM
same,IC50,second compound 0.0949 µM,> 10 µM
same,IC50,second compound 0.3 µM,> 10 µM
same,"viability, T/C",[1],81%
same,"viability, T/C",[2],93.8%
same,"viability, T/C",[3],89.8%
same,"viability, T/C",[4],94.2%
same,"viability, T/C",[5],81.8%
same,"viability, T/C",[6],80.6%
same,"viability, T/C",[7],85.8%
same,"viability, T/C",[8],115%
same,"viability, T/C",[9],101%
same,"viability, T/C",[10],85.8%
same,"viability, T/C",[11],82.1%
same,"viability, T/C",[12],75.1%
same,"viability, T/C",[13],111%
same,"viability, T/C",[14],85.1%
same,"viability, T/C",[15],89.2%
same,"viability, T/C",[16],99.7%
same,"viability, T/C",[17],99.5%
same,"viability, T/C",[18],110%
same,"viability, T/C",[19],101%
same,"viability, T/C",[20],83.8%
same,"viability, T/C",[21],102%
same,"viability, T/C",[22],87%
same,"viability, T/C",[23],84.4%
same,"viability, T/C",[24],83.4%
same,"viability, T/C",[25],88.9%
same,"viability, T/C",[26],96.2%
same,"viability, T/C",[27],108%
same,"viability, T/C",[28],103%
same,"viability, T/C",[29],95.5%
same,"viability, T/C",[30],105%
same,"viability, T/C",[31],87.6%
same,"viability, T/C",[32],103%
same,"viability, T/C",[33],93%
same,"viability, T/C",[34],100%
same,"viability, T/C",[35],90%
same,"viability, T/C",[36],119%
NC1c2ccccc2OC12CCN(c1cnc3c(N4CCCc5ncccc54)n[nH]c3n1)CC2 (centres undefined) + CCn1c(-c2cccnc2C(C)OC)c2c3cc(ccc31)N1CCOC(CC(NC(=O)C(C(C)C)N(C)C(=O)C3(F)CCN(C(=O)C#CC(C)(C)N(C)C)CC3)C(=O)N3CCCC(N3)C(=O)OCC(C)(C)C2)C1,IC50,second compound 0.000949 µM,> 10 µM
same,IC50,second compound 0.003 µM,> 10 µM
same,IC50,second compound 0.00949 µM,> 10 µM
same,IC50,second compound 0.03 µM,> 10 µM
same,IC50,second compound 0.0949 µM,> 10 µM
same,IC50,second compound 0.3 µM,> 10 µM
same,"viability, T/C",[1],103%
same,"viability, T/C",[2],104%
same,"viability, T/C",[3],99.5%
same,"viability, T/C",[4],101%
same,"viability, T/C",[5],110%
same,"viability, T/C",[6],125%
same,"viability, T/C",[7],101%
same,"viability, T/C",[8],100%
same,"viability, T/C",[9],94.7%
same,"viability, T/C",[10],100%
same,"viability, T/C",[11],104%
same,"viability, T/C",[12],103%
same,"viability, T/C",[13],96.5%
same,"viability, T/C",[14],104%
same,"viability, T/C",[15],97.9%
same,"viability, T/C",[16],114%
same,"viability, T/C",[17],98.4%
same,"viability, T/C",[18],71.9%
same,"viability, T/C",[19],91.9%
same,"viability, T/C",[20],101%
same,"viability, T/C",[21],116%
same,"viability, T/C",[22],94.8%
same,"viability, T/C",[23],86%
same,"viability, T/C",[24],110%
same,"viability, T/C",[25],91.6%
same,"viability, T/C",[26],123%
same,"viability, T/C",[27],104%
same,"viability, T/C",[28],97.9%
same,"viability, T/C",[29],99%
same,"viability, T/C",[30],118%
same,"viability, T/C",[31],92.6%
same,"viability, T/C",[32],88.4%
same,"viability, T/C",[33],95.5%
same,"viability, T/C",[34],96.8%
same,"viability, T/C",[35],125%
same,"viability, T/C",[36],141%

# Source: PubChem BioAssay AID2060905 (Molecular Pharmacology Branch, DTP, NCI, 2025)
